Reference: US20220002700A1, “COMPUTATIONALLY-OPTIMIZED ACE2 PEPTIDES FOR COMPETITIVE INTERCEPTION OF SARS-CoV-2” (priority 2020, published 2022)
Where no end group is shown, it is not given here.

Experiments:
[1] = tested on: S protein-pseudotyped virus; assay type: cell-based, SARS-CoV-2
[2] = target: RBD-sfGFP (SARS-CoV-2 RBD fused to superfolder GFP) (Severe acute respiratory syndrome coronavirus 2, UniProt P0DTC2)

| Substance | difference in pseudoviral infection competency with addition of exogenous peptide [1] | degradation in TRIM21 assay compared with other architectures [2] | reduction (depletion) of GFP+ cells [2] |
| --- | --- | --- | --- |
| 23-mer (A2N) (QNKTFLDKFNHEAEDLFYQSSLA; also: fused to a dimerising Fc or GST) | Minimal difference | improving on both the sACE2 and 23-mer architecture as well as that of a previously optimized full- length mutant, sACE2v2.4 | over 50% |
| QAKTFLDKFNHEAEDLFYQSSLA [sACE2 peptide variant 2] | – | – | ~20% |
